The target in one assay is IRAK4 (Homo sapiens (Human), UniProt Q9NWZ3). Description: IRAK4 Inhibition Assay. It is filed as biochemical. To be noted: ATP 500 μM; IRAK4 0.6 nM; 60 min room temperature; Caliper LABCHIP 3000.
In the next assay the test system is Human whole blood. In words: IRAK4 Whole Blood Assay (IL-6 levels after stimulation with TLR2 agonist lipoteichoic acid). It is filed as cell-based. To be noted: 10 μg/mL lipoteichoic acid, 5 hours. As for the experimental part:
Human whole blood containing the anti-coagulant ACD-A was plated in 384-well plate (25 μL/well) and incubated with compounds for 60 minutes at 37° C. in a 5% CO2 incubator. The blood was stimulated with a TLR2 agonist, 10 μg/mL final concentration of lipoteichoic acid (Invivogen, San Diego, CA) in 25 μL RPMI (Gibco) for 5 hours in a 5% CO2 incubator. At the end of the incubation, plates were centrifuged at 2300 rpm for 5 minutes. Supernatants were harvested and analyzed for IL-6 levels by Flow Cytometry beads assay (BD Biosciences, San Jose, CA).

Among the data in patent US12492186B2, “Bicyclic heterocyclic compounds useful as IRAK4 inhibitors” (BRISTOL-MYERS SQUIBB COMPANY, priority 2019, dated 2025) are IC50 and EC50 values, retold here.

The term IC50 denotes the midpoint of a concentration-inhibition curve. Usually EC50 stands for the midpoint of the concentration-response curve. A high value points to a need for much substance.

IRAK4, sequence (Q9NWZ3 whole entry, species assumed): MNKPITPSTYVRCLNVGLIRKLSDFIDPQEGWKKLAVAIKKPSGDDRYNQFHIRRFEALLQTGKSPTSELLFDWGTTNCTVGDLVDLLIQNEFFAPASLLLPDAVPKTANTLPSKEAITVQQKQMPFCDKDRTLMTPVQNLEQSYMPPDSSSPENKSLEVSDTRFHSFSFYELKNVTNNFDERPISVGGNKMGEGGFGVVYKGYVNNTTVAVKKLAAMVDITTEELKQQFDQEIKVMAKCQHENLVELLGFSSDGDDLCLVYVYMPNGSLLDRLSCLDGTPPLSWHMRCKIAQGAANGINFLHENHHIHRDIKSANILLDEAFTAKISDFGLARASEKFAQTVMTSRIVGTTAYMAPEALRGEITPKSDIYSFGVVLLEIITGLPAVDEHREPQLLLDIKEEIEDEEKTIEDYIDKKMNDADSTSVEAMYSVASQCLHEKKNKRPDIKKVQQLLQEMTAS

Turning to `CC(C)Nc1c(C(=O)NCCCn2ccnc2)cnc2ccc(-c3cn[nH]c3)cc12` [Example 103, N-(3-(1H-imidazol-1-yl)propyl)-4-(isopropylamino)-6-(1H-pyrazol-4-yl)quinoline-3-carboxamide], the IC50 on IRAK4 is 11 nM. Besides, in the assay with Human whole blood, the response was half-maximal at 2720 nM (EC50).

On to `CC(C)Nc1c(C(=O)NC[C@@H](F)C(C)(C)O)nnc2ccc(-c3cn[nH]c3)cc12` [Example 158, (R)—N-(2-fluoro-3-hydroxy-3-methylbutyl)-4-(isopropylamino)-6-(1H-pyrazol-4-yl) cinnoline-3-carboxamide], for which the IC50 at IRAK4 worked out at 1.6 nM. For the same compound, the EC50 with Human whole blood came to 802 nM.

With `CC(C)Nc1c(C(=O)NCC2CCS(=O)(=O)C2)nnc2ccc(-c3cn[nH]c3)cc12` (stereo not drawn) [Example 159, N-((1,1-dioxidotetrahydrothiophen-3-yl)methyl)-4-(isopropylamino)-6-(1H-pyrazol-4-yl)cinnoline-3-carboxamide], the concentration for half-maximal inhibition (IC50) on IRAK4 turned out to be 4.7 nM. Further, in the assay on Human whole blood, the response was half-maximal at 556 nM (EC50).

Turning to `O=C(NCCCc1ccncc1)c1cnc2ccc(-c3cn[nH]c3)cc2c1NC1CC1` [Example 118, 4-(cyclopropylamino)-6-(1H-pyrazol-4-yl)-N-(3-(pyridin-4-yl)propyl)quinoline-3-carboxamide], the IC50 on IRAK4 stood at 10.8 nM. This compound also showed an EC50 in the assay with Human whole blood of 3150 nM.

Turning to `CC(C)Nc1c(C(=O)NCCC(C)(C)O)cnc2ccc(-c3cn[nH]c3)cc12` [Example 17, N-(3-hydroxy-3-methylbutyl)-4-(isopropylamino)-6-(1H-pyrazol-4-yl)quinoline-3-carboxamide], at IRAK4, the IC50 stood at 8 nM. In addition, the EC50 with Human whole blood is 936 nM.

Take `CC(C)Nc1c(C(=O)NCCN2CCS(=O)(=O)CC2)nnc2ccc(-c3cn[nH]c3)cc12` [Example 160, N-(2-(1,1-dioxidothiomorpholino)ethyl)-4-(isopropylamino)-6-(1H-pyrazol-4-yl)cinnoline-3-carboxamide]: on IRAK4, the half-inhibitory concentration (IC50) came to 2.7 nM. This compound returned an EC50 in the assay with Human whole blood of 2090 nM.

For the compound `CC(C)Nc1c(C(=O)NCCC2CC2)cnc2ccc(-c3cn[nH]c3)nc12` [Example 149, N-(2-cyclopropylethyl)-4-(isopropylamino)-6-(1H-pyrazol-4-yl)-1,5-naphthyridine-3-carboxamide], the IC50 at IRAK4 worked out at 2.7 nM. Further, it took 175 nM to reach a half-maximal effect in the assay on Human whole blood (EC50).

Regarding `COC(=O)N[C@H]1CC[C@H](NC(=O)c2cnc3ccc(-c4cn[nH]c4)cc3c2NC(C)C)CC1` [Example 25, methyl ((1r,4r)-4-(4-(isopropylamino)-6-(1H-pyrazol-4-yl)quinoline-3-carboxamido)cyclohexyl)carbamate], the IC50 at IRAK4 amounted to 3.3 nM. The compound further yielded an EC50 in the assay with Human whole blood of 1280 nM.

`CC(C)Nc1c(C(=O)N[C@H]2C[C@H](O)C2)cnc2ccc(-c3cn[nH]c3)nc12` [Example 143, N-((1r,3r)-3-hydroxycyclobutyl)-4-(isopropylamino)-6-(1H-pyrazol-4-yl)-1,5-naphthyridine-3-carboxamide]: the IC50 at IRAK4 was 7.2 nM. The compound further returned an EC50 with Human whole blood of 1380 nM.

For `CC(C)Nc1c(C(=O)NCCc2cccnc2)cnc2ccc(-c3cn[nH]c3)cc12` [Example 98, 4-(isopropylamino)-6-(1H-pyrazol-4-yl)-N-(2-(pyridin-3-yl)ethyl)quinoline-3-carboxamide], at IRAK4, the concentration for half-maximal inhibition (IC50) was 4.2 nM. In addition, in the assay with Human whole blood, the EC50 is 607 nM.

Turning to `CC(C)Nc1c(C(=O)N[C@H]2CC[C@H](n3ccnn3)CC2)cnc2ccc(-c3cn[nH]c3)cc12` [Example 101, N-((1r,4r)-4-(1H-1,2,3-triazol-1-yl)cyclohexyl)-4-(isopropylamino)-6-(1H-pyrazol-4-yl)quinoline-3-carboxamide], the IC50 at IRAK4 was found to be 4.1 nM. In addition, it took 447 nM to reach a half-maximal effect in the assay with Human whole blood (EC50).

In the case of `CC(C)Nc1c(C(=O)NCCC2CCS(=O)(=O)CC2)cnc2ccc(-c3cn[nH]c3)cc12` [Example 112, N-(2-(1,1-dioxidotetrahydro-2H-thiopyran-4-yl)ethyl)-4-(isopropylamino)-6-(1H-pyrazol-4-yl) quinoline-3-carboxamide], the IC50 at IRAK4 was 4.3 nM. Also, the EC50 in the assay with Human whole blood worked out at 2730 nM.
